In paper PMC11986975, “A Cdk5 inhibitor restores cognitive function and alleviates type 2 diabetes in mice” (iScience, 2025):

Key:
HFD-fed mice [1] = experiment: Body weight in HFD-fed T2D mice; format: in vivo; settings: i.p.
Experimental: The HFD-fed mice model received intraperitoneal injections of the compounds BLINK11 and BLINK15 at doses of 20 mg/kg/day and 40 mg/kg/day for a total of 20 days in the third month of HFD feeding. The body weight was measured at the beginning of the drug therapy, on day 0, and then again on days 10 and 20, as indicated in Figure 4A.
Two groups of four-week-old male C57BL/6J mice were established. One group (n = 8) was fed a standard laboratory mouse chow diet (Protein: 20% kcal, Carbohydrate: 70% kcal, Fat: 10% kcal), while the other group (n = 40) was placed on a HFD (Protein: 20% kcal, Carbohydrate: 20% kcal, Fat: 60% kcal).[23] Body weight, ITT, and GTT were assessed. Mice were treated with BLINK11 and BLINK15 inhibitors at 20 mg/kg and 40 mg/kg doses for 20 days. The study included six groups: Control, HFD, HFD_BLINK11_20, HFD_BLINK11_40, HFD_BLINK15_20, and HFD_BLINK15_40. […] The control used in the study are vehicle treated-control group (5% DMSO, 0.1% tween 20 and 1X PBS). The doses of 20 mg/kg and 40 mg/kg body weight were selected based on evidence from previous studies evaluating the efficacy and safety of similar kinase inhibitors.[45]^,[46]^,[47] […] The 40 mg/kg dose was selected to assess dose-dependent efficacy and represents the upper limit of tolerability based on pharmacokinetic and toxicity data.

Cdk5/p35 = Cdk5/p35 (Homo sapiens, UniProt Q00535); experiment: Cdk5 kinase assay (ADP-Glo) with Cdk5/p35 complex; format: biochemical; settings: 10 μM ATP, histone substrate, inhibitor 0-100 nM
Experimental: (§1) The test tube Cdk5 Kinase assay was performed utilizing Cdk5/p35 and Cdk5/p25 complexes as kinases, following the modified procedure outlined in a previous study,[52] using a Promega ADP-GloTM Kinase Assay kit. The reaction was carried out with 10 μM ATP and 2 μg of histone as the substrate for Cdk5 complexes. To study the inhibition patterns, 19 Cdk5 inhibitors (BLINK1-19) identified through molecular docking were added to the Cdk5 kinase reaction in increasing concentrations ranging from 0 to 100 nM. The IC50 (half-maximal inhibitory concentration) values of all the inhibitors were calculated based on Log(inhibitor) vs. normalized response using GraphPad software.

[2] = test system: neurodegenerative markers in hippocampus; experiment: Western blot of hippocampal proteins (Cdk5, p35/p25, NF-H, p-NF-H, NF-L, tau, p-tau) in treated HFD mice; format: in vivo; settings: i.p.
Experimental: For tissue lysate preparation the mice were sacrificed following the Institution’s ethical guidelines. The hippocampus was isolated from the rest of the brain and treated in a tissue lysis solution with a protease and phosphatase inhibitor cocktail. Western blotting was performed to study the expression patterns of the protein of interest. Each well of a polyacrylamide gel was loaded with an identical amount of protein lysate (40–50 μg), which was then transferred to the nitrocellulose membrane. In 1X PBS with 0.1% (v/v) Tween 20, the main antibodies were diluted.

Cdk5/p25 = Cdk5/p25 (Homo sapiens, UniProt Q00535); experiment: Cdk5 kinase assay (ADP-Glo) with Cdk5/p25 complex; format: biochemical; settings: 10 μM ATP, histone substrate, inhibitor 0-100 nM
Experimental: as §1

HFD-fed mice [3] = experiment: Y-maze test in HFD mice; format: in vivo; settings: i.p., 20 days
Experimental: As previously mentioned, the Y-maze test was utilized to evaluate the mouse groups' short-term spatial memory The Y-maze test was used to assess short-term spatial memory in the mouse groups. The apparatus consists of three arms arranged in a Y-shape, typically labeled A, B, and C, with each arm having the same length and width. Mice were initially placed in one arm (usually arm A) and allowed to explore freely for 5 min, with one of the other arms blocked off, restricting exploration to the starting arm and the remaining open arm. After a 5-min delay, the mouse was reintroduced to the maze with all arms accessible. The time spent in each arm and the number of entries into each arm were recorded over a 5-min period. […] We also evaluated the mice’s spontaneous alternation rate during the Y-maze test. Spontaneous alternation reflects working memory, as it refers to the mouse’s tendency to enter a less recently visited arm. The sequence and number of arm entries were tracked, with an alternation defined as consecutive entries into all three arms without repetition (e.g., A-B-C, B-C-A).[59]^,[60]^,[61] […] As a result, we evaluated the novel arm’s exploration according to many criteria.Spontaneous Alternation (%) = {(Number of alternations)/ (Total arm entries−2)} ×100

amyloid beta (Aβ) 1–42 = experiment: Amyloid beta 1-42 in hippocampus of treated HFD mice (ELISA and immunohistochemistry); format: in vivo; settings: i.p., 40 mg/kg
HFD-fed mice [4] = experiment: Rotarod test in HFD mice; format: in vivo; settings: i.p., 20 days
Experimental: Rats and mice have been tested for motor coordination using the rotarod test. The animals were placed on a horizontal rod that rotates around its long axis for this test; in order to remain upright and prevent sliding off, the animal must move ahead. Every 5 min, the rod’s speed was raised, and the number of falls were counted to assess the motor coordination.[23]^,[55]

Sequence of Cdk5/p35 (Q00535 whole entry, species assumed): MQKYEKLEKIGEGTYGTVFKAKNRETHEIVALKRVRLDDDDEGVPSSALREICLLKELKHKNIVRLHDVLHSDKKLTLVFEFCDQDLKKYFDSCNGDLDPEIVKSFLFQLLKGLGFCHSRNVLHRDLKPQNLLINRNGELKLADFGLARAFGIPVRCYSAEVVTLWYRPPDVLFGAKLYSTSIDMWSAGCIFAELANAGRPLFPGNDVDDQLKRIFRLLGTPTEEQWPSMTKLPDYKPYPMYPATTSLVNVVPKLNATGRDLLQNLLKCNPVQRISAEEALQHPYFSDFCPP
Sequence of Cdk5/p35 (Q15078 whole entry partner, species assumed): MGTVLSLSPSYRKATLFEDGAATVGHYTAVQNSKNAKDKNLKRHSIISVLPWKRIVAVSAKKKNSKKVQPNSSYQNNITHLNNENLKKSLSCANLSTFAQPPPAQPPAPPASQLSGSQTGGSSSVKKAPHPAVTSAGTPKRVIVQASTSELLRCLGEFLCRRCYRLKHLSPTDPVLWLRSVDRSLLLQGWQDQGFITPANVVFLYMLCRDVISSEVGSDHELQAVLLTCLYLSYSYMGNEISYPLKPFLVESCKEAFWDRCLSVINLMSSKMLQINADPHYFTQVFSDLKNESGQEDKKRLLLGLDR
Sequence of Cdk5/p25 (Q00535 whole entry, species assumed): as the sequence (Q00535 whole entry, species assumed) above
Sequence of Cdk5/p25 (Q15078 99-307 partner limits assumed, species assumed): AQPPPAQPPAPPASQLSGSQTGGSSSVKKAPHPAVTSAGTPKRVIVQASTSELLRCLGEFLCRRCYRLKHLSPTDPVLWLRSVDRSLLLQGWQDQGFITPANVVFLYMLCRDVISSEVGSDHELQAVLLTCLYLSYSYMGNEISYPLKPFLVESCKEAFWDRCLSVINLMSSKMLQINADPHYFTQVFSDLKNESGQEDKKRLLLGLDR

Row | IC50 (Cdk5/p35) | IC50 (Cdk5/p25) | SMILES | Body weight gain caused by HFD (HFD-fed mice [1]; 40 mg/kg/day, 20 days (only the higher dose)) | Hippocampal expression levels of CDK5 ([2]; 20 days) | p25 generation in hippocampus ([2]; 20 days) | Body weight gain caused by HFD (HFD-fed mice [1]; both dosages 20 and 40 mg/kg/day, 20 days) | neurofilament light chain (NF-L) levels in hippocampus ([2]; 20 days) | phospho-tau-396Ser levels in hippocampus ([2]; 20 days) | phospho-NF-H levels in hippocampus ([2]; particularly at a higher dose) | Y-maze alteration percentage (HFD-fed mice [3]; 20 mg/kg/day) | Y-maze alteration percentage (HFD-fed mice [3]; 40 mg/kg/day) | Aβ 1–42 accumulation in the hippocampus (amyloid beta (Aβ) 1–42) | Muscle strength and motor coordination on the rotarod (HFD-fed mice [4])
1 | 29.3 nM | 12.1 nM | COc1ccc(C(=O)C[C@@]2(O)C(=O)N(Cc3ccccc3)c3ccc(Br)cc32)cc1[N+](=O)[O-] [BLINK15] | significant recovery | remain unaltered | remains unchanged | – | – | – | – | – | – | – | –
2 | 17.1 nM | 14.7 nM | O=C(COc1ccccc1C(=O)Nc1cccc(Cl)c1Cl)Nc1ccc(N2CCOCC2)c(Cl)c1 [BLINK11, 2-(2-((3-chloro-4-morpholinophenyl)amino)-2-oxoethoxy)-N-(2,3-dichlorophenyl)benzamide] | – | remain unaltered | remains unchanged | rescued from the gain in body weight | restored | significantly decreased | significantly reduced | did not exhibit any rescue effect | the decrease in alteration percentage was recovered | significantly reduced | rescue effect
